Results published in patent publication US20150344427A1 (EPIZYME, INC., priority 2012, published 2015).
pIC50: −log10 of the molar value.

Target: T1, wild-type EZH2 (PRC2 enzyme) (Homo sapiens, UniProt Q15910)
T1 construct: made in house; host or cells: Spodoptera frugiperda (sf9) cells, baculovirus
Experiment: PRC2 enzyme assay on peptide substrate, wild-type EZH2
Format: biochemical
Conditions: wild-type PRC2 enzyme 4 nM, H3K27me0 peptide, 3H-SAM Flashplate; read-out: WT EZH2 IC50
From the text: General Materials. S-adenosylmethionine (SAM), S-adenosylhomocyteine (SAH), bicine, KCl, Tween20, dimethylsulfoxide (DMSO) and bovine skin gelatin (BSG) were purchased from Sigma-Aldrich at the highest level of purity possible. Dithiothreitol (DTT) was purchased from EMD. ^3H-SAM was purchased from American Radiolabeled Chemicals with a specific activity of 80 Ci/mmol. 384-well streptavidin Flashplates were purchased from PerkinElmer.
Peptides representative of human histone H3 residues 21-44 containing either an unmodified lysine 27 (H3K27me0) or dimethylated lysine 27 (H3K27me2) were synthesized with a C-terminal G(K-biotin) linker-affinity tag motif and a C-terminal amide cap by 21st Century Biochemicals. […] The sequences are listed below.
Human PRC2 enzymes were purified as 4-component enzyme complexes co-expressed in Spodoptera frugiperda (sf9) cells using a baculovirus expression system. […] The EED subunit contained an N-terminal FLAG tag that was used to purify the entire 4-component complex from sf9 cell lysates.
The assays were all performed in a buffer consisting of 20 mM bicine (pH=7.6), 0.5 mM DTT, 0.005% BSG and 0.002% Tween20, prepared on the day of use. Compounds in 100% DMSO (1 μL) were spotted into polypropylene 384-well V-bottom plates (Greiner) using a Platemate 2×3 outfitted with a 384-channel pipet head (Thermo). DMSO (1 μL) was added to columns 11, 12, 23, 24, rows A-H for the maximum signal control, and SAH, a known product and inhibitor of PRC2 (1 μL) was added to columns 11,12, 23, 24, rows I-P for the minimum signal control. A cocktail (40 μL) containing the wild-type PRC2 enzyme and H3K27me0 peptide or any of the Y641 mutant enzymes and H3K27me2 peptide was added by Multidrop Combi (Thermo). The compounds were allowed to incubate with PRC2 for 30 min at 25° C., then a cocktail (10 μL) containing a mixture of non-radioactive and ^3H-SAM was added to initiate the reaction (final volume=51 μL). In all cases, the final concentrations were as follows: wild-type or mutant PRC2 enzyme was 4 nM, SAH in the minimum signal control wells was 1 mM and the DMSO concentration was 1%. The assays were stopped by the addition of non-radioactive SAM (10 μL) to a final concentration of 600 μM, which dilutes the ^3H-SAM to a level where its incorporation into the peptide substrate is no longer detectable. 50 μL of the reaction in the 384-well polypropylene plate was then transferred to a 384-well Flashplate and the biotinylated peptides were allowed to bind to the streptavidin surface for at least 1 h before being washed three times with 0.1% Tween20 in a Biotek ELx405 plate washer. The plates were then read in a PerkinElmer TopCount platereader to measure the quantity of ^3H-labeled peptide bound to the Flashplate surface, measured as disintegrations per minute (dpm) or alternatively, referred to as counts per minute (cpm).
Where dpm=disintegrations per minute, cmpd=signal in assay well, and min and max are the respective minimum and maximum signal controls.
Where top and bottom are the normally allowed to float, but may be fixed at 100 or 0 respectively in a 3-parameter fit. The Hill Coefficient normally allowed to float but may also be fixed at 1 in a 3-parameter fit. Y is the % inhibition and X is the compound concentration.

T1 sequence (Q15910 whole entry): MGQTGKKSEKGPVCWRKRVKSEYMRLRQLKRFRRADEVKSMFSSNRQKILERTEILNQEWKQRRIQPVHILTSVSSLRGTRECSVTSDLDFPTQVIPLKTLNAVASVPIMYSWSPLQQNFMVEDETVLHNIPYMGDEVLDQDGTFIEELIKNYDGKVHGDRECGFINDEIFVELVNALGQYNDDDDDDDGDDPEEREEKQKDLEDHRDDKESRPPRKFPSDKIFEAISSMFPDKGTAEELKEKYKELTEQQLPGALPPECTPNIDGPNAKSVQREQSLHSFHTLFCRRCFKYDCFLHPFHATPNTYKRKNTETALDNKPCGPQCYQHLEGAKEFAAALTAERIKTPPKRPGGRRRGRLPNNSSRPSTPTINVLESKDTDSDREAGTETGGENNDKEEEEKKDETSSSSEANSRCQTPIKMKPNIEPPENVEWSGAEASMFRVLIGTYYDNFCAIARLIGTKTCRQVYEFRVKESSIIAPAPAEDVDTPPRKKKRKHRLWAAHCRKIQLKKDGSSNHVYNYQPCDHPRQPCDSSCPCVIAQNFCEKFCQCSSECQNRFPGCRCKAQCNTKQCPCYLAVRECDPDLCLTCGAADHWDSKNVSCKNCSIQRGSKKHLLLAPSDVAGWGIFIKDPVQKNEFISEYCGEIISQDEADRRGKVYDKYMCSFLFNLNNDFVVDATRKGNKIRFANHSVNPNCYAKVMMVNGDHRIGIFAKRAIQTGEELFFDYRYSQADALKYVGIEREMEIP
T1 sequence (O75530 whole entry partner): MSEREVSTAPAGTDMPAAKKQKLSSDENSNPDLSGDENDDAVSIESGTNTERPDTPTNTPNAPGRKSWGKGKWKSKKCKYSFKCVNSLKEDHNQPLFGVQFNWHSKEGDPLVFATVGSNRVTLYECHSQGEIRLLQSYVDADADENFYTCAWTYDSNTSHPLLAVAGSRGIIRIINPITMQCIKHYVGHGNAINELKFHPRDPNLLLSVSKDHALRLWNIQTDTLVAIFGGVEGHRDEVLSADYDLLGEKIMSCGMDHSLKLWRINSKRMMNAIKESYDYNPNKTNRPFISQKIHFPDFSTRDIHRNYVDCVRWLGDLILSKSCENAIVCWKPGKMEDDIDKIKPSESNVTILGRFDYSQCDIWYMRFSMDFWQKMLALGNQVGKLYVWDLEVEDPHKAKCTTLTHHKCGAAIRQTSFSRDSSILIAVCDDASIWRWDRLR
T1 sequence (Q15022 whole entry partner): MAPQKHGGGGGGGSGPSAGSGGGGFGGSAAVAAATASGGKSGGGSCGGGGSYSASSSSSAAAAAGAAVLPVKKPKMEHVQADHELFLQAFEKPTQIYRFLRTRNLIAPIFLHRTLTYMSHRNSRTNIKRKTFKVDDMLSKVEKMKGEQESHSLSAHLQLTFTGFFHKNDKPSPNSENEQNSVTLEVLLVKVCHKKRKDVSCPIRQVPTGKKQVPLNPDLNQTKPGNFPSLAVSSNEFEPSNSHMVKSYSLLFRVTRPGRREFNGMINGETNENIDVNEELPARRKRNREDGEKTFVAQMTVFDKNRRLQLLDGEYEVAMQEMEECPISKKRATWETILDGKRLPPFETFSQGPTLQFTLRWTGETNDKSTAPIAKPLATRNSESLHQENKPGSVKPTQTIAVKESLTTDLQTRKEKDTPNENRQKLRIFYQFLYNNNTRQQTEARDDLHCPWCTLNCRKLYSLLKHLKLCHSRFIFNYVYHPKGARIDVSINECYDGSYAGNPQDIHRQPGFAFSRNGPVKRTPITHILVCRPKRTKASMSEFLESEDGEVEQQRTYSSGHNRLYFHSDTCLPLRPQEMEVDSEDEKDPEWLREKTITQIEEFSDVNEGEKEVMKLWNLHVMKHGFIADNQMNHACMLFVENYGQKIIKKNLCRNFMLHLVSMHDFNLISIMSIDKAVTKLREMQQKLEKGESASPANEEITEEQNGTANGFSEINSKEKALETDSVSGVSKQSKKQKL
T1 sequence (Q09028 whole entry partner): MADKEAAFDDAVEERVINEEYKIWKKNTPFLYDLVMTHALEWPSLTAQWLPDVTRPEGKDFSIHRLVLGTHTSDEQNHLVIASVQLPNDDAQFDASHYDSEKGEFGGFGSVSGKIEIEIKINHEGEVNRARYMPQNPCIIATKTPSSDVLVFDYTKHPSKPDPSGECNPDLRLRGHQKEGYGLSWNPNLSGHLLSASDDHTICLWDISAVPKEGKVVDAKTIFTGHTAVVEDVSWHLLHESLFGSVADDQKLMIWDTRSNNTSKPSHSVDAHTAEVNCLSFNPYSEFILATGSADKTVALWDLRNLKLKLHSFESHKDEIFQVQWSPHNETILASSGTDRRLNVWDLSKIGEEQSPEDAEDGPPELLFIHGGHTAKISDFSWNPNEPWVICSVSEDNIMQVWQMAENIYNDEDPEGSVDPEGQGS

Row | Structure (SMILES) | pIC50
1 | CCN(c1cc(-c2ccc(OCCOC)cc2)cc(C(=O)NCc2c(C)[nH]c(C)cc2=O)c1C)[C@H]1CC[C@H](N(C)C)CC1 [Compound 93] | 8.30
2 | CCN(c1cc(-c2ccc(OCCOC)cc2)cc(C(=O)NCc2c(Cl)[nH]c(C)cc2=O)c1C)[C@H]1CC[C@H](N(C)C)CC1 [Compound 92] | 7.42
3 | CCN(c1cc(-c2ccc(COC)nc2)cc(C(=O)NCc2c(Cl)[nH]c(C)cc2=O)c1C)[C@H]1CC[C@H](N(C)C)CC1 [Compound 88] | 7.40
4 | CCN(c1cc(-c2ccc(OCCOC)cc2)cc(C(=O)NCc2c(C)[nH]c(C)cc2=O)c1C)[C@H]1CC[C@H](N(C)CCOC)CC1 [Compound 100] | 7.57
5 | CCCN(c1cc(-c2ccc(OCCOC)cc2)cc(C(=O)NCc2c(C)[nH]c(C)cc2=O)c1C)[C@H]1CC[C@H](N(C)C)CC1 [Compound 94] | 7.60

Second part, the molecule after the results:

Row | pIC50 | Structure (SMILES)
6 | 4.45 | CCn1c(C)cc(=O)c(CNC(=O)c2cc(Cl)cc(N(CC)[C@H]3CC[C@H](N(C)C)CC3)c2C)c1C [Compound 87]
7 | 6.85 | CCN(c1cc(-c2cnc(C)cn2)cc(C(=O)NCc2c(Cl)[nH]c(C)cc2=O)c1C)[C@H]1CC[C@H](N(C)C)CC1 [Compound 91]
8 | 7.30 | CCN(c1cc(-c2ccc(C)nc2)cc(C(=O)NCc2c(Cl)[nH]c(C)cc2=O)c1C)[C@H]1CC[C@H](N(C)C)CC1 [Compound 90]
9 | 7.43 to 7.66 | CCN(c1cc(Cl)cc(C(=O)NCc2c(C)[nH]c(C)cc2=O)c1C)[C@H]1CC[C@H](N(C)C)CC1 [Compound 1, 5-chloro-N-((2,6-dimethyl-4-oxo-1,4-dihydropyridin-3-yl)methyl)-3-(((trans)-4-(dimethylamino)cyclohexyl)(ethyl)amino)-2-methylbenzamide]
10 | < 4.30 | CCN(c1cc(Cl)cc(C(=O)NCc2c(C)n(C)c(C)cc2=O)c1C)[C@H]1CC[C@H](N(C)C)CC1 [Compound 86]
11 | 6.57 | CCN(c1cc(-c2cnn(C)c2)cc(C(=O)NCc2c(Cl)[nH]c(C)cc2=O)c1C)[C@H]1CC[C@H](N(C)C)CC1 [Compound 89]
